Source: US20260217837A1, “FGFR3 BINDING MOLECULES AND METHODS OF USE THEREOF” (Regeneron Pharmaceuticals, Inc., priority 2023, published 2026)

What was measured:
[1] = system: locally advanced or metastatic bladder cancer; conditions: patients who receive cisplatin; Wong & Rosenberg, 2021; cited from earlier work
[2] = system: BaF3 cells expressing FGFR3 V557L; assay: BaF3 cell viability, FGFR3 V557L; format: cell-based; conditions: 72 hours, FGF1/heparin
Source text: (§1) cDNA expressing FGFR3 mutants (S249C, S248C, Y375C, V555M, V555L, S249C+V555M, or S249C+V555L) were synthesized and cloned into pLVX Lenti-viral vector (Thermo Fisher). Viral particles were generated by lipofectamine transfection of LentiX 293T cells using Lenti-X packaging single shots following manufacturer's protocol (Clontech/Takara) and concentrated using Lenti-X concentrator and titer determined using Lenti-X p24 rapid titer kit (Clontech/Takara). BaF3 cells were transduced with virus at ~0.3 MOI.
(§2) For cell proliferation assays, engineered BaF3/hFGFR3 cells grown in complete medium were washed and plated in IL-3-free culture media±5 μg/ml heparin and 1 nM human FGF1. Cells were plated out at 1×10^5 cells/well into 96-well plates, followed by the addition of 1:3 serially diluted antibodies as indicated in figures. After addition of antibodies, cells were incubated at 37° C. for 72 h followed by the addition of CellTiter-Glo™ (Promega) reagent. The luminescent signal was detected by Envision plate reader (PerkinElmer). Data was analyzed using Prism software (GraphPad). […]

[3] = system: BaF3 cells expressing the double mutant FGFR3 S249C+V557M; assay: BaF3 cell viability, FGFR3 S249C+V557M; format: cell-based; conditions: 72 hours, FGF1/heparin
Source text: as §1, §2

[4] = system: BaF3 cells expressing FGFR3 V557M; assay: BaF3 cell viability, FGFR3 V557M; format: cell-based; conditions: 72 hours, FGF1/heparin
Source text: as §1, §2

[5] = system: BaF3 cells expressing the double mutant FGFR3 S249C+V557L; assay: BaF3 cell viability, FGFR3 S249C+V557L; format: cell-based; conditions: 72 hours, FGF1/heparin
Source text: as §1, §2

N.N.[Cl][Pt][Cl] [cisplatin]
median overall survival [1]: approximately 14 months

AZD4547 [reference compound]
growth of BaF3 cells expressing FGFR3 V557L [2]: ineffective
growth of BaF3 cells expressing FGFR3 S249C+V557M [3]: ineffective
growth of BaF3 cells expressing FGFR3 V557M [4]: ineffective
growth of BaF3 cells expressing FGFR3 S249C+V557L [5]: ineffective
